Experimental data published in patent publication US11724981B2, “Cationic surfactants comprising an ether link” (Battelle Memorial Institute, priority 2018, dated 2023).

Test: Aquatic toxicity according to Method 2007
Details: in vivo, Mysidopsis Bahia
Excerpt: (References: OECD Guideline for the Testing of Chemicals: BG1Luc Estrogen Receptor Transactivation Test Method for Identifying Estrogen Receptor Agonists and Antagonists, OECD Guidelines for the Testing of Chemicals, Section 4, OECD Publishing, Paris, https://doi.org/10.1787/9789264185395-en, and http://ntp.niehs.nih.gov/ntp/about_ntp/sacatm/2012/september/d_draft_oecdtg457bg1luc_508.pdf; and G. Bittner, M. Denison, C. Yang, M. Stoner and G. He, Environmental Health 2014, 13 103). They were also tested for aquatic toxicity according to Method 2007 using Mysidopsis Bahia.

## CCCCCCCCCCCCCCCC[N+](C)(C)C [CTAB, cetyl trimethyl ammonium bromide]
  LC50 at 96 h: 0.2 mg/L
